Results from patent US20230220206A1, “REJUVENATING AGENTS FOR ASPHALT RECYCLING” (BASF SE, priority 2020, published 2023).

Assays:
[1] = BBR of rejuvenated polymer-modified bitumen; format: physicochemical; conditions: Olexobit 45 + 5% compound
Protocol: (§1) Different bitumen samples were rejuvenated as in Example 1, and the BBR values S (flexural creep stiffness) and m […] were evaluated at −16° C. The results were compared to the not rejuvenated bitumen sample as well as to the bitumen rejuvenated with the benchmark RheoFalt® HP-AM (Comp. 1.3).

[2] = MSCR elastic recovery of rejuvenated RAP bitumen; format: physicochemical; conditions: bitumen extracted from RAP + 5% compound
[3] = Ageing index (RTFOT ageing) of rejuvenated polymer-modified bitumen; format: physicochemical; conditions: Olexobit 45 + 5% compound; viscosity after ageing divided by viscosity before ageing
Source text: Herewith, it will be shown that the positive effects of the here claimed rejuvenating agents can also be applied to PmB, in this case Olexobit 45. Olexobit 45 was therefore rejuvenated according to the procedure of Example 1.

[4] = format: physicochemical; conditions: aged bitumen 50/70 BP + 5% compound
[5] = Low temperature performance, bending beam rheometer (BBR) at −16° C.; format: physicochemical; conditions: bitumen 20/30 + 5% compound
Protocol: as §1

BBR S-value [MPa] [1]: 120 MPa | BBR m-value [1]: 0.39 | MSCR % Rec. (0.1 kPa) ([2]; 0.1 kPa): 10% | MSCR % Rec. (1.6 kPa) ([2]; 1.6 kPa): 6% | MSCR % Rec. (3.2 kPa) ([2]; 3.2 kPa): 3% | AI (ageing index) [3]: 2.2 | η(135° C.) [mPas] [4]: 800 mPas | S-value [MPa] (flexural creep stiffness) [5]: 105 MPa | m-value [5]: 0.43
Substance: Polypropylenglycol bis glycidylether
